Results taken from ChEMBL document CHEMBL1129833, “N-Phthalimidoalkyl derivatives of 2-carbomethoxy-3-(4-iodophenyl)tropane (-CIT): Brain monoamine transporter affinity” (Bioorg Med Chem Lett, 1997).

Key:
Assay type in all cases: tissue-based
[1] = molecular target: Norepinephrine transporter (Rattus norvegicus, UniProt Q9WTR4); experiment: In vitro binding affinity of compound for Norepinephrine (NE) transporter with [3H]- […] as radioligand in corpus striatum tissue from rat forebrain
[2] = molecular target: Sodium-dependent serotonin transporter (Rattus norvegicus, UniProt P31652); experiment: In vitro binding affinity of compound for Serotonin transporter with [3H]- paroxetine as radioligand in corpus striatum tissue from rat forebrain
Chain of Sodium-dependent serotonin transporter (P31652 whole entry): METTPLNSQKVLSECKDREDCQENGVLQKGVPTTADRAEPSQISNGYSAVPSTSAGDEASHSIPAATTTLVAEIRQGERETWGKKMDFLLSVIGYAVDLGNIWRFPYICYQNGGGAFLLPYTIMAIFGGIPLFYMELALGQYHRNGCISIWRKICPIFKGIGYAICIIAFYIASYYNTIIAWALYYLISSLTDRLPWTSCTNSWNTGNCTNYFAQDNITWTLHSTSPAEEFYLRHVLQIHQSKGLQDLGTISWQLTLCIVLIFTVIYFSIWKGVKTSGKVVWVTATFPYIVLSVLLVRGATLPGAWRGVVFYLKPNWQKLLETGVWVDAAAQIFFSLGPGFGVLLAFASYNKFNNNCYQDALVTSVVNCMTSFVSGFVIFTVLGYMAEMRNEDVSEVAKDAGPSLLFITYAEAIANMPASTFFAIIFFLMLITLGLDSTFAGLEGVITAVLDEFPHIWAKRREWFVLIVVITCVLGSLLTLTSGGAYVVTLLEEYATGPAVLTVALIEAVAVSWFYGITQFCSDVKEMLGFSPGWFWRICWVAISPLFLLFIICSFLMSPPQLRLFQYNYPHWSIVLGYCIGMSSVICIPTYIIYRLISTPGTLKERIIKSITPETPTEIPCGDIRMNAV

[3] = molecular target: Sodium-dependent dopamine transporter (Rattus norvegicus, UniProt P23977); experiment: In vitro binding affinity of compound for Dopamine transporter with [3H]- GBR-12935 as radioligand in corpus striatum tissue from rat forebrain
Chain of Sodium-dependent dopamine transporter (P23977 whole entry): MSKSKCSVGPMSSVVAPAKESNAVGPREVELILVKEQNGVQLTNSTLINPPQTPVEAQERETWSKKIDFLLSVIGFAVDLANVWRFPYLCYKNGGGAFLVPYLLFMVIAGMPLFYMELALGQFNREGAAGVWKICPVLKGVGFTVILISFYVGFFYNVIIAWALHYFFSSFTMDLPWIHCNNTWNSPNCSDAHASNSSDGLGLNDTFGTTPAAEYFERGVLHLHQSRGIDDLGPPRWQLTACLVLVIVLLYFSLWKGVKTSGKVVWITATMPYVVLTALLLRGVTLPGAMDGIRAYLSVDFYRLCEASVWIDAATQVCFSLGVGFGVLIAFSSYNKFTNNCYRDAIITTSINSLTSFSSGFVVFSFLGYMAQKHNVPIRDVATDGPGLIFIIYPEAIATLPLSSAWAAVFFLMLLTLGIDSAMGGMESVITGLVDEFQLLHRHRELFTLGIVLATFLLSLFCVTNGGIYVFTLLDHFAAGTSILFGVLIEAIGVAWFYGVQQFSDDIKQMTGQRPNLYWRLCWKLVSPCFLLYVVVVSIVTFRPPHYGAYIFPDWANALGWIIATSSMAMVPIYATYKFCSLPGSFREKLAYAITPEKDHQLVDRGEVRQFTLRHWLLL

Chain of Norepinephrine transporter (Q9WTR4 whole entry): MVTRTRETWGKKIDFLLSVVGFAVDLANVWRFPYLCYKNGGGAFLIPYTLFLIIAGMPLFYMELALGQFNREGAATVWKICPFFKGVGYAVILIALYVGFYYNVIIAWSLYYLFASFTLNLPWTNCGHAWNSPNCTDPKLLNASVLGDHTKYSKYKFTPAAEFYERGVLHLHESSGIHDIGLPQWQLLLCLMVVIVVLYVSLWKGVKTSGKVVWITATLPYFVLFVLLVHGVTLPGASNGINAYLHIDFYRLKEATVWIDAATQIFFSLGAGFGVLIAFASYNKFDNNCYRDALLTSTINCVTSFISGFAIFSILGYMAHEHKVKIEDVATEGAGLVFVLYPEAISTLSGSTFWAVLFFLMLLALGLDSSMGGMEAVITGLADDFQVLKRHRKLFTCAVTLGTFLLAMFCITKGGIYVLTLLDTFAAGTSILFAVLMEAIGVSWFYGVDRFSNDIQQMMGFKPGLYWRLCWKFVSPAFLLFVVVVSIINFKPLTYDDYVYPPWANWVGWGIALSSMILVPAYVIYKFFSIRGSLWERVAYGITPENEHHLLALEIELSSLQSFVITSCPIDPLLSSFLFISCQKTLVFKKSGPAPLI

COC(=O)C1C2CC[C@H](C[C@@H]1c1ccc(I)cc1)N2CCN1C(=O)c2ccccc2C1=O (stereo partly drawn) showed a Ki [1] of 441 nM, a Ki [2] of 0.84 nM and a Ki [3] of 4.23 nM.

Work on COC(=O)C1C2CC[C@@H](C[C@@H]1c1ccc(I)cc1)N2CCCCN1C(=O)c2ccccc2C1=O (stereo partly drawn) yielded a Ki [1] of 190 nM, a Ki [2] of 0.21 nM and a Ki [3] of 2.38 nM.

COC(=O)C1C2CC[C@H](C[C@@H]1c1ccc(I)cc1)N2C (stereo partly drawn) showed a Ki [2] of 0.44 nM.

In the case of COC(=O)C1C2CC[C@H](C[C@@H]1c1ccc(I)cc1)N2CCCCCCCCN1C(=O)c2ccccc2C1=O (stereo partly drawn), the Ki [1] is reported as 75 nM, the Ki [2] is reported as 0.2 nM and the Ki [3] is reported as 2.98 nM.

With COC(=O)C1C2CC[C@H](C[C@@H]1c1ccc(I)cc1)N2CCCCCN1C(=O)c2ccccc2C1=O (stereo partly drawn) the Ki [1] was 60 nM, the Ki [2] was 0.34 nM and the Ki [3] was 2.4 nM.
